These results are taken from ChEMBL document CHEMBL1152168 (Bioorg Med Chem Lett, 2008).

Series [1] in a line: Inhibition of MEK-mediated phosphorylation of myelin basic protein by kinase cascade assay.
Series [2] can be described thus: Inhibition of MEK-mediated ERK phosphorylation in PDGF-stimulated mouse K-Balb cells treated as single oral dose preincubated for 1 hr before PDGF challenge by whole cell assay.
Series [3] in a line: Inhibition of MEK-mediated ERK phosphorylation in PDGF-stimulated mouse K-Balb cells treated as single oral dose preincubated for 24 hrs before PDGF challenge by whole cell assay.
Series [4] in a line: Aqueous solubility in phosphate buffer at pH 6.5. The series is classed as physicochemical.
A short description of series [5]: Inhibition of MEK-stimulated ERK phosphorylation in PDGF-stimulated mouse C26 cells treated as single oral dose before PDGF challenge by whole cell assay. Type of series: cell-based.
Series [6] is described as follows: Antitumor activity in mouse C26 cells xenografted mouse assessed as 100% reduction in tumor mass at 300 mg/kg/treatment, po dosed thrice a day after 14 days. Also on record: scale not given: the % may be the effect or the level left. Type of series: functional.
The nature of series [7]: Antitumor activity in mouse C26 cells xenografted mouse assessed as 100% reduction in tumor mass at 75 mg/kg/treatment, po dosed thrice a day after 14 days. The series is classed as functional. Also noted: scale not given: the % may be the effect or the level left.
A short description of series [8]: Antitumor activity in mouse C26 cells xenografted mouse assessed as tumor growth delay at 300 mg/kg/treatment, po dosed thrice a day after 14 days relative to control. The series is classed as functional.
Series [9] in a line: Metabolic stability in human liver microsomes. Type of series: ADME, Microsome. (In general: Microsomes from liver hold many membrane-bound enzymes, among them those of drug oxidation.)
The nature of series [10]: Antitumor activity in mouse C26 cells xenografted mouse assessed as 50% reduction in tumor mass at 75 mg/kg/treatment, po dosed thrice a day after 14 days. The series is classed as functional. Also on record: scale not given: the % may be the effect or the level left.
A short description of series [11]: Antitumor activity in mouse C26 cells xenografted mouse assessed as tumor growth delay at 75 mg/kg/treatment, po dosed thrice a day after 14 days relative to control. Type of series: functional.
The nature of series [12]: Metabolic stability in human hepatocytes. The series is classed as ADME, cell-based, Liver, Hepatocyte.
A short description of series [13]: Antitumor activity in mouse C26 cells xenografted mouse assessed as 50% reduction in tumor mass at 300 mg/kg/treatment, po dosed thrice a day after 14 days. The series is classed as functional. Also on record: scale not given: the % may be the effect or the level left.
The nature of series [14]: Permeability across human Caco-2 cells. Conditions: read-out: permeability. Type of series: ADME, cell-based.
Series [15] is described as follows: Distribution coefficient, log D of the compound. The series is classed as physicochemical. The settings on record: octanol/water.
In series [16] the test system is Mus musculus. The series is described as follows: Inhibition of MEK-mediated ERK phosphorylation in mouse C26 cells xenografted mouse at 100 mg/kg, po after 1 day. Conditions: C26, 24 h. Type of series: functional.
Series [17] is described as follows: Antitumor activity in mouse C26 cells xenografted mouse assessed as 100% reduction in tumor mass at 25 mg/kg/treatment, po qd after 14 days. Also noted: scale not given: the % may be the effect or the level left. Type of series: functional.
Series [18] is described as follows: Antitumor activity in mouse C26 cells xenografted mouse assessed as 100% reduction in tumor mass at 1.6 mg/kg/treatment, po qd after 14 days. The series is classed as functional. Also noted: scale not given: the % may be the effect or the level left.
A short description of series [19]: Antitumor activity in mouse C26 cells xenografted mouse assessed as minimal effective dose. The settings on record: read-out: MED. Type of series: functional.
Series [20] can be described thus: Toxicity in mouse assessed as maximum tolerated dose. Type of series: organism-based. Conditions: in vivo.
For series [21], the system named is Mus musculus. The series is described as follows: Inhibition of MEK-mediated ERK phosphorylation in mouse C26 cells xenografted mouse at 12.5 mg/kg, po after 1 day. Type of series: functional. The settings on record: C26, 24 h.
The nature of series [22]: Antitumor activity in mouse C26 cells xenografted mouse assessed as tumor growth delay at 25 mg/kg/treatment, po qd after 14 days relative to control. The series is classed as functional.
The nature of series [23]: Antitumor activity in mouse C26 cells xenografted mouse assessed as 50% reduction in tumor mass at 25 mg/kg/treatment, po qd after 14 days. Type of series: functional. Also on record: scale not given: the % may be the effect or the level left.
Series [24] is described as follows: Antitumor activity in mouse C26 cells xenografted mouse assessed as tumor growth delay at 1.6 mg/kg/treatment, po qd after 14 days relative to control. The series is classed as functional.
A short description of series [25]: Antitumor activity in mouse C26 cells xenografted mouse assessed as 50% reduction in tumor mass at 1.6 mg/kg/treatment, po qd after 14 days. Type of series: functional. Also noted: scale not given: the % may be the effect or the level left.
In series [26] the test system is Mus musculus. The series is described as follows: Inhibition of MEK-mediated ERK phosphorylation in mouse C26 cells xenografted mouse at 50 mg/kg, po after 1 day. The series is classed as functional. Conditions: C26, 24 h.

Broadly, the IC50 is the midpoint of a concentration-inhibition curve. The term solubility denotes the dissolved amount per volume that the medium holds. As a reminder, the half-life is the time needed for the level to fall by half in the phase considered. Usually logD stands for lipophilicity at a set pH, counting ionised and neutral species. By inhibition in vivo is commonly meant how much of the control response was suppressed. For orientation: MTD means the largest dose that counted as tolerated.

In brackets after ≈: the same amount, converted by molar mass.

Turning to `O=C(O)c1ccccc1Nc1cccc(I)c1`, in [1], the half-inhibitory concentration (IC50) was over 10 µM.

`CCONC(=O)c1ccc(F)c(F)c1Nc1ccc(I)cc1C`: the IC50 came out at 0.00418 µM in series [2], 0.047 µM in series [3] and 0.02 µM in [1].

`Cc1cc(I)ccc1Nc1cc(F)ccc1C(=O)O` had an IC50 in series [1] of 0.015 µM.

Take `CONC(=O)c1ccc(F)cc1Nc1ccc(I)cc1C`: the IC50 stood at 0.0118 µM in series [2], 0.05 µM in series [3] and 0.026 µM in series [1].

In [4], `O=C(NOCCO)c1ccc(F)c(F)c1Nc1ccc(I)cc1Cl` showed a solubility of under 1 µg/mL. The same compound displayed an IC50 in series [5] of 0.0035 µM.

Take `Cc1cc(I)ccc1Nc1c(C(=O)NOCC2CC2)ccc(F)c1F`: the IC50 was 0.00648 µM in series [2], 0.172 µM in [3] and 0.007 µM in [1].

Take `Cc1cc(I)ccc1Nc1c(C(=O)NOCC2CC2)cc(Br)c(F)c1F`: the IC50 in series [2] is 0.0264 µM; in series [3], 0.113 µM; in series [1], 0.0078 µM.

As to `Cc1cc(I)ccc1Nc1c(C(=O)NOCC2CCCC2)cc(Br)c(F)c1F`, the IC50 in series [2] stood at 0.119 µM; in series [3], 0.661 µM; in [1], 0.023 µM.

As to `Cc1cc(I)ccc1Nc1c(C(=O)NOCC2CCCCC2)cc(Br)c(F)c1F`, the values for the IC50 in series [2], in series [3] and in series [1] were 1.14 µM, 1.78 µM and 0.048 µM, respectively.

Regarding `CCCONC(=O)c1ccc(F)c(F)c1Nc1ccc(I)cc1C`, the results for the IC50 in [2], in series [3] and in series [1] were 0.00442 µM, 0.136 µM and 0.018 µM, respectively.

For the compound `Cc1cc(I)ccc1Nc1c(C(=O)NOC(C)C)ccc(F)c1F`, the IC50 in [2] was 0.00818 µM; in series [3] it was 0.232 µM; in series [1] it was 0.035 µM.

Regarding `Cc1cc(I)ccc1Nc1cc(F)ccc1C(=O)NOCC1CC1`, the values for the half-maximal inhibitory concentration (IC50) in [2], in series [3] and in series [1] were 0.0235 µM, 0.257 µM and 0.027 µM, respectively.

Turning to `O=C(NOCC1CC1)c1ccc(F)cc1Nc1ccc(I)cc1Cl`, the values for the IC50 in series [2], in series [3] and in series [1] were 0.0549 µM, 0.0846 µM and 0.013 µM, respectively.

Turning to `Cc1cc(I)ccc1Nc1c(C(=O)O)ccc(F)c1F`, in [1], the IC50 amounted to 0.0058 µM.

In [1], `Cc1cc(I)ccc1Nc1ccc(F)cc1C(=O)O` yielded an IC50 of 0.166 µM.

In the case of `Cc1cc(I)ccc1Nc1cc(Cl)ccc1C(=O)O`, it took 0.554 µM to reach half-maximal inhibition in series [1] (IC50).

For the compound `Cc1cc(I)ccc1Nc1ccccc1C(=O)O`, in [1], the IC50 came to 0.39 µM.

Turning to `O=C(O)c1ccccc1Nc1ccccc1I`, the IC50 in [1] is over 10 µM.

In turn, `O=C(O)c1ccccc1Nc1ccc(I)cc1` had an IC50 in [1] of 3.05 µM.

`O=C(NOC[C@@H](O)CO)c1ccc(F)c(F)c1Nc1ccc(I)cc1F` gave a solubility in series [4] of 255 µg/mL (≈ 529 µM).

As for `O=C(NOCC1CC1)c1ccc(F)c(F)c1Nc1ccc(I)cc1F`, the solubility in series [4] is under 1 µg/mL. The same compound showed an IC50 in series [5] of 0.001 µM.

Consider `O=C(NO)c1ccc(F)cc1Nc1ccc(I)cc1Cl`, for which the results for the IC50 in series [2], in [3] and in series [1] were 0.00159 µM, 0.645 µM and 0.0028 µM, respectively.

Regarding `Cc1cc(I)ccc1Nc1c(C(=O)NOCC2CCC2)cc(Br)c(F)c1F`, the IC50 was found to be 0.0758 µM in series [2], 0.326 µM in [3] and 0.01 µM in series [1].

As to `Cc1cc(I)ccc1Nc1cc(F)ccc1C(=O)NO`, the IC50 in series [2] came out at 0.00355 µM; in [3] it was 0.624 µM; in series [1], 0.00796 µM.

In series [1], `Cc1cc(I)ccc1Nc1c(C(=O)O)cc(F)c(F)c1F` came in with an IC50 of 0.0068 µM.

For the compound `Cc1cc(I)ccc1Nc1cccc(F)c1C(=O)O`, the IC50 in series [1] is 0.518 µM.

Take `O=C(NOCC(O)CO)c1ccc(F)c(F)c1Nc1ccc(I)cc1Cl` (racemic): the IC50 in series [5] was found to be 0.019 µM.

In turn, `O=C(NOCC(O)CO)c1ccc(F)c(F)c1Nc1ccc(I)cc1F` (racemic) showed a solubility in [4] of 147 µg/mL (≈ 305 µM).

`O=C(NOCC1CC1)c1ccc(F)c(F)c1Nc1ccc(I)cc1Cl` [CI-1040]: the Activity in series [6] is 70%; in series [7], 10%; in series [8], 12.7 days; in [10], 20%; in [11] it was 10.8 days; in [13], 30%. For the same compound, the IC50 in [2] stood at 0.00245 µM; in series [3], 0.0354 µM; in series [1], 0.0023 µM; in series [5] it was 0.035 µM. Moreover, the half-life in series [9] was determined as 0.192 h; in series [12] it was 1.67 h. The Papp in [14] was 16.2 ×10⁻⁶ cm/s. The logD in series [15] is over 5. In addition, in series [16], the inhibition in vivo at 100 mg/kg came to 14%.

For `O=C(NOC[C@H](O)CO)c1ccc(F)c(F)c1Nc1ccc(I)cc1F` [MIRDAMETINIB], the Activity in series [17] was determined as 70%; in [18] it was 20%; in series [22] it was 15.4 days; in [23], 30%; in series [24], 7.7 days; in series [25], 0%. The minimal effective dose in series [19] was found to be 1.6 mg/kg. Further, the MTD in series [20] was found to be 25 mg/kg. The compound also came in with an inhibition in vivo at 12.5 mg/kg in [21] of 59%. The same compound showed a solubility in [4] of 190 µg/mL (≈ 394 µM). The half-life is over 1.67 h in series [9] and 6.17 h in series [12]. In series [14], the Papp came out at 72.7 ×10⁻⁶ cm/s. This compound also displayed a logD in series [15] of 4.6. The compound further had an inhibition in vivo at 50 mg/kg in series [26] of 84%.
